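GI50 marks 50% less growth. Definition used: TGI = concentration required for complete inhibition of growth.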
Legend:
Test in all cases: NCI anticancer screen, dose series, 384-well format
HL-60(TB) leukemia = system: HL-60(TB) leukemia
SF-539 CNS = system: SF-539 CNS
TK-10 renal = system: TK-10 renal
MDA-MB-468 breast = system: MDA-MB-468 breast
EKVX NSCLC = system: EKVX NSCLC
SF-295 CNS = system: SF-295 CNS
MDA-MB-435 melanoma = system: MDA-MB-435 melanoma
SK-MEL-5 melanoma = system: SK-MEL-5 melanoma
HS 578T breast = system: HS 578T breast
NCI/ADR-RES ovarian = system: NCI/ADR-RES ovarian
IGROV1 ovarian = system: IGROV1 ovarian
UACC-257 melanoma = system: UACC-257 melanoma
SK-MEL-28 melanoma = system: SK-MEL-28 melanoma
MOLT-4 leukemia = system: MOLT-4 leukemia
SN12C renal = system: SN12C renal
KM12 colon = system: KM12 colon
HOP-92 NSCLC = system: HOP-92 NSCLC
SNB-75 CNS = system: SNB-75 CNS
MALME-3M melanoma = system: MALME-3M melanoma
HCC-2998 colon = system: HCC-2998 colon
RXF 393 renal = system: RXF 393 renal
COLO 205 colon = system: COLO 205 colon
HOP-62 NSCLC = system: HOP-62 NSCLC
OVCAR-3 ovarian = system: OVCAR-3 ovarian
MCF7 breast = system: MCF7 breast
OVCAR-4 ovarian = system: OVCAR-4 ovarian
HCT-116 colon = system: HCT-116 colon
CAKI-1 renal = system: CAKI-1 renal
DU-145 prostate = system: DU-145 prostate
U251 glioblastoma = system: U251 glioblastoma
LOX IMVI melanoma = system: LOX IMVI melanoma
SW-620 colon = system: SW-620 colon
OVCAR-8 ovarian = system: OVCAR-8 ovarian
NCI-H522 lung = system: NCI-H522 lung
NCI-H226 lung = system: NCI-H226 lung
T-47D breast = system: T-47D breast
BT-549 breast = system: BT-549 breast
RPMI-8226 leukemia = system: RPMI-8226 leukemia
SK-OV-3 ovarian = system: SK-OV-3 ovarian
NCI-H460 NSCLC = system: NCI-H460 NSCLC
MDA-MB-231 breast = system: MDA-MB-231 breast
SR leukemia = system: SR leukemia
K-562 leukemia = system: K-562 leukemia
OVCAR-5 ovarian = system: OVCAR-5 ovarian
UACC-62 melanoma = system: UACC-62 melanoma
NCI-H322M lung = system: NCI-H322M lung
SNB-19 CNS = system: SNB-19 CNS

`O=C(c1cc(Cc2n[nH]c(=O)c3ccccc23)ccc1F)N1CCN(C(=O)C2CC2)CC1` gave a GI50 (HL-60(TB) leukemia) of 21.2 µM, a TGI (HL-60(TB) leukemia) greater than 100 µM and a GI50 (SF-539 CNS) of 11.8 µM. For the same compound, the TGI (SF-539 CNS) was greater than 100 µM, the GI50 (TK-10 renal) was greater than 100 µM and the TGI (TK-10 renal) was greater than 100 µM. The GI50 (MDA-MB-468 breast) was 3.76 µM, the TGI (MDA-MB-468 breast) was 16.7 µM and the GI50 (EKVX NSCLC) was 97.7 µM. The TGI (EKVX NSCLC) was greater than 100 µM, the GI50 (SF-295 CNS) was 4.68 µM and the TGI (SF-295 CNS) was greater than 37.3 µM. It also gave a GI50 (MDA-MB-435 melanoma) greater than 100 µM, a TGI (MDA-MB-435 melanoma) greater than 100 µM and a GI50 (SK-MEL-5 melanoma) of 35 µM. It also gave a TGI (SK-MEL-5 melanoma) greater than 73.1 µM, a GI50 (HS 578T breast) of 25.9 µM and a TGI (HS 578T breast) greater than 100 µM. It also gave a GI50 (NCI/ADR-RES ovarian) greater than 100 µM, a TGI (NCI/ADR-RES ovarian) greater than 100 µM and a GI50 (IGROV1 ovarian) greater than 62.7 µM. The TGI (IGROV1 ovarian) was greater than 100 µM, the GI50 (UACC-257 melanoma) was greater than 100 µM and the TGI (UACC-257 melanoma) was greater than 100 µM. For the same compound, the GI50 (SK-MEL-28 melanoma) was greater than 100 µM, the TGI (SK-MEL-28 melanoma) was greater than 100 µM and the GI50 (MOLT-4 leukemia) was 1.43 µM. For the same compound, the TGI (MOLT-4 leukemia) was 3.03 µM, the GI50 (SN12C renal) was greater than 100 µM and the TGI (SN12C renal) was greater than 100 µM. For the same compound, the GI50 (KM12 colon) was greater than 100 µM, the TGI (KM12 colon) was greater than 100 µM and the GI50 (HOP-92 NSCLC) was 57.3 µM. It also gave a TGI (HOP-92 NSCLC) greater than 100 µM, a GI50 (SNB-75 CNS) of 22.5 µM and a TGI (SNB-75 CNS) greater than 95.9 µM. For the same compound, the GI50 (MALME-3M melanoma) was greater than 100 µM, the TGI (MALME-3M melanoma) was greater than 100 µM and the GI50 (HCC-2998 colon) was greater than 29.2 µM. The TGI (HCC-2998 colon) was greater than 100 µM, the GI50 (RXF 393 renal) was greater than 37.6 µM and the TGI (RXF 393 renal) was greater than 79.6 µM. It also gave a GI50 (COLO 205 colon) greater than 77 µM, a TGI (COLO 205 colon) greater than 100 µM and a GI50 (HOP-62 NSCLC) of 4.92 µM. For the same compound, the TGI (HOP-62 NSCLC) was greater than 75.5 µM, the GI50 (OVCAR-3 ovarian) was 60.5 µM and the TGI (OVCAR-3 ovarian) was greater than 100 µM. It also gave a GI50 (MCF7 breast) of 28.6 µM, a TGI (MCF7 breast) greater than 100 µM and a GI50 (OVCAR-4 ovarian) greater than 80.3 µM. For the same compound, the TGI (OVCAR-4 ovarian) was greater than 100 µM, the GI50 (HCT-116 colon) was 8.27 µM and the TGI (HCT-116 colon) was greater than 100 µM. For the same compound, the GI50 (CAKI-1 renal) was 52.4 µM, the TGI (CAKI-1 renal) was greater than 100 µM and the GI50 (DU-145 prostate) was 53.5 µM. It also gave a TGI (DU-145 prostate) greater than 100 µM, a GI50 (U251 glioblastoma) of 27.3 µM and a TGI (U251 glioblastoma) greater than 100 µM. It also gave a GI50 (LOX IMVI melanoma) of 23 µM, a TGI (LOX IMVI melanoma) greater than 100 µM and a GI50 (SW-620 colon) greater than 35 µM. It also gave a TGI (SW-620 colon) greater than 100 µM, a GI50 (OVCAR-8 ovarian) of 22 µM and a TGI (OVCAR-8 ovarian) greater than 100 µM. The GI50 (NCI-H522 lung) was 51.7 µM, the TGI (NCI-H522 lung) was greater than 100 µM and the GI50 (NCI-H226 lung) was 34.5 µM. For the same compound, the TGI (NCI-H226 lung) was greater than 100 µM, the GI50 (T-47D breast) was 34.8 µM and the TGI (T-47D breast) was greater than 100 µM. It also gave a GI50 (BT-549 breast) of 17.2 µM, a TGI (BT-549 breast) greater than 75.8 µM and a GI50 (RPMI-8226 leukemia) of 12.7 µM. The TGI (RPMI-8226 leukemia) was greater than 100 µM, the GI50 (SK-OV-3 ovarian) was greater than 55.5 µM and the TGI (SK-OV-3 ovarian) was greater than 100 µM. It also gave a GI50 (NCI-H460 NSCLC) of 5.78 µM, a TGI (NCI-H460 NSCLC) greater than 100 µM and a GI50 (MDA-MB-231 breast) greater than 61.1 µM. For the same compound, the TGI (MDA-MB-231 breast) was greater than 100 µM, the GI50 (SR leukemia) was 1.37 µM and the TGI (SR leukemia) was 3.38 µM. The GI50 (K-562 leukemia) was 33.5 µM, the TGI (K-562 leukemia) was greater than 100 µM and the GI50 (OVCAR-5 ovarian) was greater than 100 µM. It also gave a TGI (OVCAR-5 ovarian) greater than 100 µM, a GI50 (UACC-62 melanoma) greater than 95.7 µM and a TGI (UACC-62 melanoma) greater than 100 µM. The GI50 (NCI-H322M lung) was greater than 100 µM, the TGI (NCI-H322M lung) was greater than 100 µM and the GI50 (SNB-19 CNS) was 99.2 µM. The TGI (SNB-19 CNS) was greater than 100 µM.

— PubChem BioAssay (NCI)
